According to patent US5096901A, “Pharmacologically active amides and esters containing an azabicycloalkane moiety” (John Wyeth & Brother Limited, priority 1989, dated 1992):

Target: T1, 5-HT3 receptors (Rattus norvegicus, UniProt P35563)
T1 sequence (P35563 24-483): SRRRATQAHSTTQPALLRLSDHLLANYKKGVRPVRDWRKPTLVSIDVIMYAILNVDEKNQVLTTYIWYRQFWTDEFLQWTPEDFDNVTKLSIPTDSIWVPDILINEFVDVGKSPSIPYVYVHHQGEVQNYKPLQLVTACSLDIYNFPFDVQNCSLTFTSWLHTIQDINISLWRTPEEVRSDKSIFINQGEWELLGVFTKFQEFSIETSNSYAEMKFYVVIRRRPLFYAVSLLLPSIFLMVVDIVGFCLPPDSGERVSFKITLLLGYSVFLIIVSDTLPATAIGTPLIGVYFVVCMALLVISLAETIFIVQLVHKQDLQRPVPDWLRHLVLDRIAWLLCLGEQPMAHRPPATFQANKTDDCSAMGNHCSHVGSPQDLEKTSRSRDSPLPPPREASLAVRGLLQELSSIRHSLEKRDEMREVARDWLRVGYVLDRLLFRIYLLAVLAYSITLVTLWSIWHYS
Method: The compounds of the invention are tested for 5-HT3 antagonistic activity in the rat vagus by the following procedure:
Segments of the vagus nerve from Sprague-Dawley rats were placed in a perspex chamber and perfused with Krebs solution. Electrodes, positioned at either end of the nerve segment, were used to record the potential differences which ensued upon the addition of various concentrations of 5-HT to one end of the nerve segment. Concentration-response curves to 5-HT were obtained in this manner prior to and following equilibration of the nerve segment with Krebs solution containing the test-substance.

Question: Which Kb does the source give for CN1[C@@H]2CC[C@H]1C[C@@H](NC(=O)c1cn(C)c3ccccc3c1=O)C2 [Example 1, (Endo)-N-(8-methyl-8-azabicyclo [3.2.1]octan-3-yl)-1,4-dihydro-1-methyl-4-oxoquinoline-3-carboxamide] here?
Answer: Its Kb is 3.98 nM.
